In US20090143285A1, “TARGET PROTEIN AND TARGET GENE FOR DRUG DISCOVERY AND SCREENING METHOD” (REVERSE PROTEOMICS RESEARCH INSTITUTE CO., LTD., priority 2005, published 2009):
Changes are numbered by the printed parent chain. “Also recorded” adds a separate entry of the source. Values belong to the compound of their own block, whether it stands above or below them.

What was measured:
FLJ25288-derived protein = target: T1, FLJ25288-derived protein (Homo sapiens, UniProt P09525, T85M); assay: SEC/MS interaction analysis, FLJ25288-derived protein (Annexin A4); assay type: binding; conditions: TSKgel super SW2000 micro-LC column (1.0 mm ID×30 mm); presence vs absence of protein; data not shown
T1 construct: His-tag (N); made in house; host or cells: Escherichia coli BL21star(DE3)pLysS
T1 sequence (P09525 1-321 isoform P09525-3 T87M): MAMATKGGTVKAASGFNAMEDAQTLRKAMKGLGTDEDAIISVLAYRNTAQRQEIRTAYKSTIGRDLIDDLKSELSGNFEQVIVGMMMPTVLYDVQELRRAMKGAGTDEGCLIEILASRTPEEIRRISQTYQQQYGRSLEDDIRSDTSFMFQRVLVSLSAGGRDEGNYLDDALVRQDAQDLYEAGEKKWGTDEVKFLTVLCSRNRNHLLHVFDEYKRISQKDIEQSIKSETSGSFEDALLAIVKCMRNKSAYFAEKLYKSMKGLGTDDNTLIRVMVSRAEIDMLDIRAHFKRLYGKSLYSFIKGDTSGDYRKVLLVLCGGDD
Source text: (§1) To analyze the interactions between commonly used drugs and proteins expressed from human full-length cDNA clones while keeping both the proteins and the compounds in non-modified, non-immobilized state, size exclusion chromatography (SEC) and mass analysis were used in combination. The specific procedures are shown below.
(§2) The compound-protein mixture prepared in step 1 was subjected to chromatography using an SEC column, the compound and the protein were separated by SEC, and the compound that interacted with the bound compound or protein contained in the protein fraction was analyzed using a mass analyzer.
(§3) Protein concentrations were measured using BCA Protein Assay (PIERCE), in consideration of the purity calculated by SDS-PAGE.
(§4) Mass analysis was performed using LCQ DECA XP (Thermoelectron) or Q-TOF micro (Micromass), equipped with an ESI probe. […]
(§5) In the 384-well spin column method, Unifilter 100 (Whatman), packed with 10 μL (dry volume) of Bio-Gel P6 (BIO-RAD) and swollen with milliQ water, was used as the SEC column. […] 2-μL of mass analysis samples were injected using an autosampler at 2-minute intervals; the mass spectral intensity of the compound was measured to retrieve the spectral intensity of the pharmaceutical compound contained in the SEC spin column filtrate (protein fraction eluted from SEC).

[1] = tested on: FLJXXXXX-derived proteins; assay: SEC/MS spin column interaction analysis of FLJXXXXX-derived proteins and various compounds (Tables 30-1 to 30-4); assay type: binding, human; conditions: SEC spin column filtrate, spectral intensity increased with doses of compound and protein
FLJ39553-derived protein = target: T2, FLJ39553-derived protein (Homo sapiens, UniProt Q6P6B1, N326S); assay: SEC/MS interaction analysis, FLJ39553-derived protein (hypothetical protein FLJ39553); assay type: binding; conditions: TSKgel super SW2000 micro-LC column (1.0 mm ID×30 mm); presence vs absence of protein; data not shown
T2 construct: His-tag (N); made in house; host or cells: Escherichia coli BL21star(DE3)pLysS
T2 sequence (Q6P6B1 1-374 N326S): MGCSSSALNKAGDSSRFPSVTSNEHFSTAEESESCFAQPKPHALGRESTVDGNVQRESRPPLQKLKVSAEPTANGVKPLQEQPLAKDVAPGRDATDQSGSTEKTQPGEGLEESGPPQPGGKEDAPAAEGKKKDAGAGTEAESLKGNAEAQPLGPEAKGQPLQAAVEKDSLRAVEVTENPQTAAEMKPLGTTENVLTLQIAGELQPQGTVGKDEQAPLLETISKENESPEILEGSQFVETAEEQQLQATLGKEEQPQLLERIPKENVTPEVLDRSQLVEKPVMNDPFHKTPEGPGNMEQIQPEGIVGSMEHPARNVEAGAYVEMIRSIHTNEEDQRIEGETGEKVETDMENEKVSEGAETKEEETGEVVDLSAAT
Source text: as §1, §2, §3, §4, §5

FLJ10537-derived protein = target: T3, FLJ10537-derived protein (Homo sapiens, UniProt Q9NR28); assay: SEC/MS interaction analysis, FLJ10537-derived protein (DIABLO homolog; SMAC); assay type: binding; conditions: TSKgel super SW2000 micro-LC column (1.0 mm ID×30 mm); presence vs absence of protein; data not shown
T3 construct: His-tag (N); made in house; host or cells: Escherichia coli BL21star(DE3)pLysS
T3 sequence (Q9NR28 1-186 isoform Q9NR28-2): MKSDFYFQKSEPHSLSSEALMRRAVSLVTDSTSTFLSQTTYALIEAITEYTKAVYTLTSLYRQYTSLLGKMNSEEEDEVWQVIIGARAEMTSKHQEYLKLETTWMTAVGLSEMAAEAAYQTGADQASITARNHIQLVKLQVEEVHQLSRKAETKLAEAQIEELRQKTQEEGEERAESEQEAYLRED
Source text: as §1, §2, §3, §4, §5

FLJ41991-derived protein = target: T4, FLJ41991-derived protein (Homo sapiens, UniProt P57764, E293G); assay: SEC/MS interaction analysis, FLJ41991-derived protein (GSDMDC1); assay type: binding
T4 construct: His-tag (N); made in house; host or cells: Escherichia coli BL21star(DE3)pLysS (pDEST17)
T4 sequence (P57764 265-484 E293G): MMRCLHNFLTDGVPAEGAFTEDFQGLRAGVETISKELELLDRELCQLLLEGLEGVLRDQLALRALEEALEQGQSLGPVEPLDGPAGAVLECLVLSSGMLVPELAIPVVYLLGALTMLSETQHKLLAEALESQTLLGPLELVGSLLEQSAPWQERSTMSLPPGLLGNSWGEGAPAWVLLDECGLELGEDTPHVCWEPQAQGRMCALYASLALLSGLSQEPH
Procedure, shortened: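 Compound–protein mixtures separated by SEC (micro-LC column with 10 mM ammonium acetate mobile phase, or Bio-Gel P6 spin column) and analysed by ESI mass spectrometry. Interaction inferred from a protein-dependent shift in the compound's mass chromatogram, or from compound signal intensity in the eluted protein fraction.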

FLJ38897-derived protein = target: T5, FLJ38897-derived protein (Homo sapiens, UniProt P57764); assay: SEC/MS interaction analysis, FLJ38897-derived protein (GSDMDC1); assay type: binding; conditions: spin column method; mixture with protein vs buffer solution alone; data not shown
T5 construct: His-tag (N); made in house; host or cells: Escherichia coli BL21star(DE3)pLysS
T5 sequence (P57764 265-484): T4 sequence (P57764 265-484 E293G) with G29E
Source text: as §1, §2, §3
Mass analysis was performed using LCQ DECA XP (Thermoelectron) or Q-TOF micro (Micromass), equipped with an ESI probe. The LC pump used was Agilent 1100 (Yokogawa Analytical Systems), and the autosampler used was HTC-PAL (CTC Analytics) equipped with a cooling stacker. The SEC column used was a micro-LC column or a 384-well spin column. […]
In the 384-well spin column method, Unifilter 100 (Whatman), packed with 10 μL (dry volume) of Bio-Gel P6 (BIO-RAD) and swollen with milliQ water, was used as the SEC column. […] The SEC spin column was mounted on an acetonitrile-aliquoted 384-well U-bottom plate and centrifuged; the SEC spin column filtrate, which is a protein fraction, was recovered in 50% acetonitrile. The protein precipitate produced by the acetonitrile was removed via centrifugation and filtration for deproteinization; the resulting filtrate was concentrated by centrifugal concentration and re-dissolved in 10 μL of 50% methanol to obtain a mass analysis sample. The mobile phase supplied to the mass analyzer was 0.1% formic acid/50% methanol solution in the positive ion mode, and 0.1% ammonia/50% methanol solution in the negative ion mode; these mobile phases were used at a flow rate of 40 μL/min. 2-μL of mass analysis samples were injected using an autosampler at 2-minute intervals; the mass spectral intensity of the compound was measured to retrieve the spectral intensity of the pharmaceutical compound contained in the SEC spin column filtrate (protein fraction eluted from SEC).

FLJ11211-derived protein = target: T6, FLJ11211-derived protein (Homo sapiens, UniProt Q9Y222, I712M); assay: SEC/MS interaction analysis, FLJ11211-derived protein (DMTF1; DMP1); assay type: binding; conditions: spin column method; mixture with protein vs buffer solution alone; data not shown
T6 construct: corresponds to a partial peptide of human DMP1 on the C-terminal side thereof (303 amino acid residues); His-tag (N); made in house; host or cells: Escherichia coli BL21star(DE3)pLysS
T6 sequence (Q9Y222 458-760 I712M): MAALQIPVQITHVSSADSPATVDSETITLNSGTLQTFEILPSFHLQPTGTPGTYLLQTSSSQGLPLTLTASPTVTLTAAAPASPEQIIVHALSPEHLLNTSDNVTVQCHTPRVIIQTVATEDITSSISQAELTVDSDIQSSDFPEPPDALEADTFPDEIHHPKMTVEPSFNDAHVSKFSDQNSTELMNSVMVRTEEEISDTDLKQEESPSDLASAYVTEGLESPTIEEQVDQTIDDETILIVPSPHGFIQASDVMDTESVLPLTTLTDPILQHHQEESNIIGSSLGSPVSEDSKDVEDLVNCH
Source text: as §1, §2, §3, §4, §5

FLJ22317-derived protein = target: T7, FLJ22317-derived protein (Homo sapiens, UniProt Q9NWV8); assay: SEC/MS interaction analysis, FLJ22317-derived protein (HSPC142 protein); assay type: binding; conditions: TSKgel super SW2000 micro-LC column (1.0 mm ID×30 mm); presence vs absence of protein; data not shown
T7 construct: His-tag (N); made in house; host or cells: Escherichia coli BL21star(DE3)pLysS
T7 sequence (Q9NWV8 whole entry): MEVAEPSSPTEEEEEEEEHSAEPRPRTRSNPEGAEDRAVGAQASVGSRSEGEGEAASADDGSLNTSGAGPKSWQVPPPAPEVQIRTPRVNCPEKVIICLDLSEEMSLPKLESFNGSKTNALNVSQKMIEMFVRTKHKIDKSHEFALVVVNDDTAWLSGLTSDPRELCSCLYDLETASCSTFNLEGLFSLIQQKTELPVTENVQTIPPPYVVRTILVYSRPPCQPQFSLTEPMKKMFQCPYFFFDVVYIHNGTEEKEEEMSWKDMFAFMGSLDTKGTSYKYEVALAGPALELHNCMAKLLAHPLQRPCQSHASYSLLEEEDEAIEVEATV
Source text: The specific procedures are shown below.

Compound: C[C@@H]1[C@H](O)[C@@H](C)/C=C/C=C/C=C/C=C/C=C/C=C/C=C/[C@H](O[C@@H]2O[C@H](C)[C@@H](O)[C@H](N)[C@@H]2O)C[C@@H]2O[C@](O)(C[C@@H](O)C[C@@H](O)[C@H](O)CC[C@@H](O)C[C@@H](O)CC(=O)O[C@H]1C)C[C@H](O)[C@H]2C(=O)O [amphotericin B]
interaction judged from mass chromatogram of the compound (elution from SEC micro-LC column) (FLJ39553-derived protein): there was an interaction | FLJ No of the derived protein with which the compound was judged to exhibit a concentration-dependent interaction [1]: FLJ39553

Compound: COc1c2occc2cc2ccc(=O)oc12 [methoxsalen]
interaction judged from mass chromatogram of the compound (elution from SEC micro-LC column) (FLJ10537-derived protein): there was an interaction | FLJ No of the derived protein with which the compound was judged to exhibit a concentration-dependent interaction [1]: FLJ10537

Compound: solanine α
interaction judged from mass chromatogram of the compound (elution from SEC micro-LC column) (FLJ22317-derived protein): there was an interaction | FLJ No of the derived protein with which the compound was judged to exhibit a concentration-dependent interaction [1]: FLJ22317; also recorded: FLJ39553

The next lines start with results.

interaction judged from mass chromatogram of the compound (elution from SEC micro-LC column) (FLJ25288-derived protein): there was an interaction
Compound: CN(Cc1cnc2nc(N)nc(N)c2n1)c1ccc(C(=O)N[C@@H](CCC(=O)O)C(=O)O)cc1 (racemic) [amethopterin (R, S), amethopterin]
FLJ No of the derived protein with which the compound was judged to exhibit a concentration-dependent interaction [1]: FLJ25288

spectrum intensity of the compound in the SEC spin column filtrate (FLJ41991-derived protein; compound 12.5 μM, protein 0 μM): 26814 | spectrum intensity of the compound in the SEC spin column filtrate (FLJ41991-derived protein; compound 12.5 μM, protein 5 μM): 200843 | spectrum intensity of the compound in the SEC spin column filtrate (FLJ41991-derived protein; compound 12.5 μM, protein 10 μM): 376865 | spectrum intensity of the compound in the SEC spin column filtrate (FLJ41991-derived protein; compound 12.5 μM, protein 25 μM): 1734729 | spectrum intensity of the compound in the SEC spin column filtrate (FLJ41991-derived protein; compound 25 μM, protein 0 μM): 87636 | spectrum intensity of the compound in the SEC spin column filtrate (FLJ41991-derived protein; compound 25 μM, protein 5 μM): 311313 | spectrum intensity of the compound in the SEC spin column filtrate (FLJ41991-derived protein; compound 25 μM, protein 10 μM): 949465 | spectrum intensity of the compound in the SEC spin column filtrate (FLJ41991-derived protein; compound 25 μM, protein 25 μM): 4190413 | spectrum intensity of the compound in the SEC spin column filtrate (FLJ41991-derived protein; compound 62.5 μM, protein 0 μM): 231173 | spectrum intensity of the compound in the SEC spin column filtrate (FLJ41991-derived protein; compound 62.5 μM, protein 5 μM): 1759965 | spectrum intensity of the compound in the SEC spin column filtrate (FLJ41991-derived protein; compound 62.5 μM, protein 10 μM): 5619658 | spectrum intensity of the compound in the SEC spin column filtrate (FLJ41991-derived protein; compound 62.5 μM, protein 25 μM): 9678283 | interaction judged from spectrum intensity of the compound in the SEC spin column filtrate (protein fraction eluted from SEC) (FLJ41991-derived protein; spin column method, doses of both compound and protein varied): concentration-dependent interaction | interaction judged from mass spectrum peak intensity of the compound in the spin column filtrate (FLJ38897-derived protein): an interaction was observed | interaction judged from mass spectrum peak intensity of the compound in the spin column filtrate (FLJ11211-derived protein): there was an interaction
Compound: CC(C)(C)c1ccc(C(O)CCCN2CCC(C(O)(c3ccccc3)c3ccccc3)CC2)cc1 (stereo not drawn) [terfenadine]
FLJ No of the derived protein with which the compound was judged to exhibit a concentration-dependent interaction [1]: FLJ11211; also recorded: FLJ38897; also recorded: FLJ41991
